Results as given in the supplement of paper PMC10307832.

Assays:
Test in all cases: relative viability (nuclei count vs DMSO), 5 days (fraction); higher = more cells survive
Wnt-C59 + Pemetrexed = compound: CC1=NC=CC(=C1)C2=CC=C(C=C2)CC(=O)NC3=CC=C(C=C3)C4=CN=CC=C4 [Wnt-C59] + Nc1nc2[nH]cc(CCc3ccc(C(=O)N[C@@H](CCC(=O)O)C(=O)O)cc3)c2c(=O)[nH]1 [Pemetrexed] (partner 0.2 µM)
In short: (§1)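 For relative viability, nuclei counts in treated wells were divided by those in vehicle wells. Lung cancer cell lines had been pin-tool dosed in 1536-well plates the day after seeding and cultured for 5 days, then fixed and stained in one step (final 0.05% Triton X-100, 1% formaldehyde, 1 ug/ml Hoechst) and imaged at 4×. Doses were one drug alone or a fixed anchor-drug dose plus five library-drug doses (not always all listed) in √10 steps, and values are duplicate-plate medians.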

Wnt-C59 + Pictilisib = compound: CC1=NC=CC(=C1)C2=CC=C(C=C2)CC(=O)NC3=CC=C(C=C3)C4=CN=CC=C4 [Wnt-C59] + CS(=O)(=O)N1CCN(Cc2cc3nc(-c4cccc5[nH]ncc45)nc(N4CCOCC4)c3s2)CC1 [Pictilisib] (partner 1 µM)
In short: as §1

Wnt-C59 + Crizotinib = compound: CC1=NC=CC(=C1)C2=CC=C(C=C2)CC(=O)NC3=CC=C(C=C3)C4=CN=CC=C4 [Wnt-C59] + C[C@@H](Oc1cc(-c2cnn(C3CCNCC3)c2)cnc1N)c1c(Cl)ccc(F)c1Cl [Crizotinib] (partner 1 µM)
In short: as §1

Wnt-C59 + Luminespib = compound: CC1=NC=CC(=C1)C2=CC=C(C=C2)CC(=O)NC3=CC=C(C=C3)C4=CN=CC=C4 [Wnt-C59] + CCNC(=O)c1noc(-c2cc(C(C)C)c(O)cc2O)c1-c1ccc(CN2CCOCC2)cc1 [Luminespib] (partner 0.01 µM)
In short: as §1

Cell Line	relative viability (Wnt-C59 + Pemetrexed; first compound 0.001 µM)	relative viability (Wnt-C59 + Pemetrexed; first compound 0.01 µM)	relative viability (Wnt-C59 + Pemetrexed; first compound 0.03162 µM)	relative viability (Wnt-C59 + Pemetrexed; first compound 0.1 µM)	relative viability (Wnt-C59 + Pictilisib; first compound 0.001 µM)	relative viability (Wnt-C59 + Pictilisib; first compound 0.01 µM)	relative viability (Wnt-C59 + Pictilisib; first compound 0.03162 µM)	relative viability (Wnt-C59 + Pictilisib; first compound 0.1 µM)	relative viability (Wnt-C59 + Crizotinib; first compound 0.001 µM)	relative viability (Wnt-C59 + Crizotinib; first compound 0.01 µM)	relative viability (Wnt-C59 + Crizotinib; first compound 0.03162 µM)	relative viability (Wnt-C59 + Crizotinib; first compound 0.1 µM)	relative viability (Wnt-C59 + Luminespib; first compound 0.001 µM)	relative viability (Wnt-C59 + Luminespib; first compound 0.01 µM)	relative viability (Wnt-C59 + Luminespib; first compound 0.03162 µM)	relative viability (Wnt-C59 + Luminespib; first compound 0.1 µM)
SK-LU-1	0.969	1	1	0.973	0.476	0.558	0.638	0.559	0.869	0.935	0.91	1.03	0.211	0.219	0.184	0.206
NCI-H2347	0.46	0.489	0.451	0.434	0.628	0.566	0.86	0.634	0.673	0.598	0.612	0.653	0.565	0.339	0.498	0.877
NCI-H596	0.533	0.569	0.483	0.479	0.43	0.437	0.381	0.421	0.972	1	1.32	0.932	1.14	1.08	1.06	1.06
NCI-H661	0.884	0.878	0.91	0.884	0.414	0.441	0.391	0.442	1	1.05	0.981	0.948	0.904	0.911	0.972	0.912
ChaGo-K-1	0.258	0.259	0.252	0.266	0.461	–	0.862	1.02	1.08	–	1.21	1.09	0.672	0.71	0.765	0.543
LU99A	0.205	0.195	0.178	0.195	0.309	0.317	0.316	0.321	0.577	0.538	0.622	0.531	0.249	0.269	0.249	0.263
SW 1573	0.863	0.848	0.879	0.761	0.452	0.544	0.563	0.404	0.771	0.764	0.746	0.825	0.227	0.398	0.37	0.177
NCI-H1734	0.414	0.389	0.423	0.394	0.438	0.438	0.473	0.461	0.642	0.618	0.773	0.66	0.233	0.241	0.196	0.138
NCI-H2126	0.688	0.655	0.642	0.649	0.451	0.446	0.489	0.479	0.994	0.998	0.987	1.01	0.83	1	0.991	0.892
NCI-H838	0.235	0.24	0.267	0.242	0.463	0.516	0.439	0.42	0.839	0.826	0.902	0.916	0.279	0.347	0.311	0.303
NCI-H2228	0.306	0.334	0.337	0.328	0.479	0.505	0.573	0.252	0.509	0.393	0.563	0.466	0.173	0.149	0.223	0.197
NCI-H460	0.0664	0.0664	0.0652	0.0706	0.33	0.327	0.373	0.32	0.996	0.961	0.878	0.689	0.0357	0.0331	0.0466	0.0312
NCI-H2023	0.238	0.258	0.221	0.24	0.27	0.244	0.238	0.235	0.701	0.65	0.686	0.594	0.775	0.757	0.785	0.702
HOP-62	0.34	0.294	0.353	0.29	0.63	0.76	0.855	0.693	0.973	0.916	0.974	0.789	0.945	0.913	0.969	0.927
NCI-H2009	0.988	1.11	1.07	1.04	0.744	0.825	0.841	0.784	0.941	1.11	1.06	1.03	1.04	0.976	1.07	0.997
NCI-H1915	0.502	0.464	0.517	0.505	0.97	0.922	0.837	0.958	0.771	0.852	1.02	0.912	0.867	0.74	0.986	0.785
NCI-H650	1.09	0.969	0.934	0.951	0.838	0.94	0.982	0.685	0.699	0.75	0.874	0.691	0.752	0.751	0.865	0.718

Cell Line	relative viability (Wnt-C59 + Pemetrexed; first compound 0.001 µM)	relative viability (Wnt-C59 + Pemetrexed; first compound 0.01 µM)	relative viability (Wnt-C59 + Pemetrexed; first compound 0.03162 µM)	relative viability (Wnt-C59 + Pemetrexed; first compound 0.1 µM)	relative viability (Wnt-C59 + Pictilisib; first compound 0.001 µM)	relative viability (Wnt-C59 + Pictilisib; first compound 0.01 µM)	relative viability (Wnt-C59 + Pictilisib; first compound 0.03162 µM)	relative viability (Wnt-C59 + Pictilisib; first compound 0.1 µM)	relative viability (Wnt-C59 + Crizotinib; first compound 0.001 µM)	relative viability (Wnt-C59 + Crizotinib; first compound 0.01 µM)	relative viability (Wnt-C59 + Crizotinib; first compound 0.03162 µM)	relative viability (Wnt-C59 + Crizotinib; first compound 0.1 µM)	relative viability (Wnt-C59 + Luminespib; first compound 0.001 µM)	relative viability (Wnt-C59 + Luminespib; first compound 0.01 µM)	relative viability (Wnt-C59 + Luminespib; first compound 0.03162 µM)	relative viability (Wnt-C59 + Luminespib; first compound 0.1 µM)
NCI-H3122	0.219	0.216	0.197	0.195	0.61	0.642	0.626	0.518	0.28	0.268	0.283	0.249	0.0968	0.0872	0.0839	0.0884
NCI-H2085	0.837	0.887	0.963	0.888	0.502	0.449	0.41	0.45	0.929	0.803	0.953	0.823	0.457	0.502	0.419	0.494
NCI-H1650	0.354	0.442	0.38	0.422	0.549	0.53	0.645	0.532	1.08	1.02	0.896	0.89	0.223	0.197	0.203	0.214
EKVX	0.376	–	0.367	0.361	0.428	0.362	0.394	0.344	1.06	1.09	0.879	0.874	0.952	0.824	0.857	0.704
HCC-15	0.228	0.235	0.215	0.225	0.74	0.711	0.732	0.723	0.891	0.82	0.919	0.85	0.399	0.297	0.287	0.369
LK-2	0.332	0.295	0.323	0.331	0.667	0.653	0.557	0.573	0.228	0.238	0.212	0.259	0.199	0.159	0.174	0.213
SK-MES-1	0.92	0.982	0.986	0.827	0.392	0.368	0.305	0.322	1.01	0.973	1.07	0.959	0.88	0.792	0.78	0.739
COR-L23	0.221	0.194	0.206	0.2	0.745	0.653	0.818	0.79	0.653	0.567	0.637	0.67	0.758	0.667	0.742	0.617
NCI-H1355	1.04	1.03	1.03	0.96	0.486	0.325	0.38	0.393	1.01	1.05	1.06	0.966	0.774	0.693	0.649	0.626
NCI-H441	0.277	0.225	0.258	0.276	0.557	0.428	0.592	0.573	0.731	0.906	0.805	0.615	0.428	0.247	0.276	0.407
NCI-H1563	0.736	0.751	0.723	0.705	0.604	0.665	0.721	0.646	0.812	0.802	0.965	0.797	0.498	0.539	0.565	0.528
NCI-H322M	0.649	0.589	0.579	0.569	0.517	0.426	0.491	0.414	0.819	0.937	0.877	0.841	0.978	0.737	0.737	0.809
NCI-H1993	0.67	0.591	0.609	0.625	0.979	0.833	0.902	0.84	0.932	0.981	0.878	1.9	0.862	–	0.948	0.365
LOU-NH91	0.386	0.384	0.345	0.38	0.541	0.577	0.508	0.565	0.732	0.65	0.738	0.766	0.375	0.284	0.298	0.348
201T	0.357	0.326	0.311	0.36	0.704	0.676	0.676	0.698	1.01	1.02	1.01	1.03	1.03	1.07	0.996	1.02
LXF-289	0.897	0.827	0.916	0.91	0.767	0.774	0.853	0.794	0.822	0.768	0.817	0.78	0.607	0.666	0.618	0.712
